# Like-named read-outs stand apart in the source and are kept apart here.
# Experiments:
# Seratia marcescens NHL = assay: MIC, antibacterial activity (agar culture); type: cell-based; settings: 37° C., 18-20 hours, Mueller-Hinton agar, read-out: Minimum inhibitory concentration MIC
# Escherichia coli 0-1 = assay: MIC, antibacterial activity (agar culture); type: cell-based; settings: 01, 37° C., 18-20 hours, Mueller-Hinton agar, read-out: Minimum inhibitory concentration MIC
# Saccharomyces ruxii 6507 = assay: MIC, yeasts and molds (agar culture); type: cell-based; settings: 28° C., 120 hours, glucose-peptone agar, read-out: Minimum inhibitory concentration MIC
# [1] = tested on: Debaryomyces Kloecheri IFO 0015; assay: MIC, yeasts and molds (agar culture); type: cell-based; settings: IFO0015, 28° C., 120 hours, glucose-peptone agar, read-out: Minimum inhibitory concentration MIC
# [2] = tested on: Staphylococcus epidermidis ATCC 12228; assay: MIC, antibacterial activity (agar culture); type: cell-based; settings: ATCC12228, 37° C., 18-20 hours, Mueller-Hinton agar, read-out: Minimum inhibitory concentration MIC
# [3] = tested on: Piricularia oryzae IAM 5016; assay: microbe, parasite or virus in culture; type: cell-based
# [4] = tested on: Cladosporium fulvum IAM 5006; assay: MIC, yeasts and molds (agar culture); type: cell-based; settings: Fulvia fulva, IAM5006, 28° C., 120 hours, glucose-peptone agar, read-out: Minimum inhibitory concentration MIC
# Sarcina lutea ATCC 9341 = assay: MIC, antibacterial activity (agar culture); type: cell-based; settings: Micrococcus luteus, ATCC9341, 37° C., 18-20 hours, Mueller-Hinton agar, read-out: Minimum inhibitory concentration MIC
# Salmonella typhi TD = assay: MIC, antibacterial activity (agar culture); type: cell-based; settings: Salmonella enterica, read-out: Minimum inhibitory concentration MIC
# [5] = tested on: Aspergillus oryzae IFM 4014; assay: MIC, yeasts and molds (agar culture); type: cell-based; settings: IFM4014, 28° C., 120 hours, glucose-peptone agar, read-out: Minimum inhibitory concentration MIC
# [6] = tested on: Gibberella fujikuroi IAM 8046; assay: MIC, yeasts and molds (agar culture); type: cell-based; settings: Fusarium fujikuroi, IAM8046, 28° C., 120 hours, glucose-peptone agar, read-out: Minimum inhibitory concentration MIC
# [7] = tested on: Micrococcus lysodeikticus IFO 3333; assay: MIC, antibacterial activity (agar culture); type: cell-based; settings: Micrococcus luteus, IFO3333, 37° C., 18-20 hours, Mueller-Hinton agar, read-out: Minimum inhibitory concentration MIC
# [8] = tested on: Staphylococcus aureus TERAGIMA; assay: MIC, antibacterial activity (agar culture); type: cell-based; settings: 37° C., 18-20 hours, Mueller-Hinton agar, read-out: Minimum inhibitory concentration MIC
# [9] = tested on: Penicillium chrysogenum ATCC 6010; assay: MIC, yeasts and molds (agar culture); type: cell-based; settings: ATCC6010, 28° C., 120 hours, glucose-peptone agar, read-out: Minimum inhibitory concentration MIC
# [10] = tested on: Aspergillus niger ATCC 9642; assay: MIC, yeasts and molds (agar culture); type: cell-based; settings: ATCC9642, 28° C., 120 hours, glucose-peptone agar, read-out: Minimum inhibitory concentration MIC
# [11] = tested on: Helmintsporium sesamum IAM 5012; assay: MIC, yeasts and molds (agar culture); type: cell-based; settings: 28° C., 120 hours, glucose-peptone agar, read-out: Minimum inhibitory concentration MIC
# Shigella flexneri 2b = assay: MIC, antibacterial activity (agar culture); type: cell-based; settings: 37° C., 18-20 hours, Mueller-Hinton agar, read-out: Minimum inhibitory concentration MIC
# Meth-A fibrosarcoma = assay: Antitumor effect, survival of tumor-inoculated mice; type: in vivo, CDF1 mice; settings: intraperitoneally, once a day for 10 days
# Description: (§1) Antitumor effects of some Fredericamycin A derivatives against Ehrlich carcinoma, Meth-A fibrosarcoma and mouse leukemia P-388 were tested in accordance with the following procedures. Antitumor effects against Ehrlich carcinoma and Meth-A fibrosarcoma are expressed by percentage of mean survival time of test and control animals. Antitumor effects against P-388 are expressed by percentage of median survival time of test and control animals.
# (§2) (ii) Meth-A fibrosarcoma and mouse leukemia P-388:
# (§3) 1×10^6 tumor cells were inoculated to CDF1 mice (.male., Charles River Japan Inc.) intraperitoneally. Each tested compound was given intraperitoneally once a day for 10 days from 1 day after tumor inoculation.
# [12] = tested on: Trichophyton mentagrophytes QM 248; assay: MIC, yeasts and molds (agar culture); type: cell-based; settings: QM248, 28° C., 120 hours, glucose-peptone agar, read-out: Minimum inhibitory concentration MIC
# [13] = tested on: Staphylococcus aureus Smith; assay: MIC, antibacterial activity (agar culture); type: cell-based; settings: 37° C., 18-20 hours, Mueller-Hinton agar, read-out: Minimum inhibitory concentration MIC
# [14] = tested on: Bacillus subtilis ATCC 6633; assay: MIC, antibacterial activity (agar culture); type: cell-based; settings: ATCC6633, 37° C., 18-20 hours, Mueller-Hinton agar, read-out: Minimum inhibitory concentration MIC
# Ehrlich carcinoma = assay: Antitumor effect, survival of tumor-inoculated mice; type: in vivo, ICR mice; settings: intraperitoneally, once a day for 10 days
# [15] = tested on: Staphylococcus aureus FDA 209P; assay: MIC, antibacterial activity (agar culture); type: cell-based; settings: FDA209P, 37° C., 18-20 hours, Mueller-Hinton agar, read-out: Minimum inhibitory concentration MIC
# Proteus vulgaris OXK = assay: MIC, antibacterial activity (agar culture); type: cell-based; settings: 37° C., 18-20 hours, Mueller-Hinton agar, read-out: Minimum inhibitory concentration MIC
# [16] = tested on: Fusarium moniliforme IAM 5062; assay: MIC, yeasts and molds (agar culture); type: cell-based; settings: Fusarium verticillioides, IAM5062, 28° C., 120 hours, glucose-peptone agar, read-out: Minimum inhibitory concentration MIC
# [17] = tested on: Pseudomonas aeruginosa IFO 13736; assay: MIC, antibacterial activity (agar culture); type: cell-based; settings: IFO13736, 37° C., 18-20 hours, Mueller-Hinton agar, read-out: Minimum inhibitory concentration MIC
# [18] = tested on: Klebsiella pneumoniae ATCC 10031; assay: MIC, antibacterial activity (agar culture); type: cell-based; settings: ATCC10031, 37° C., 18-20 hours, Mueller-Hinton agar, read-out: Minimum inhibitory concentration MIC
# [19] = tested on: Microsporum gypseum IFO 8231; assay: MIC, yeasts and molds (agar culture); type: cell-based; settings: Nannizzia gypsea, IFO8231, 28° C., 120 hours, glucose-peptone agar, read-out: Minimum inhibitory concentration MIC
# [20] = tested on: Candida albicans NHL 4019; assay: MIC, yeasts and molds (agar culture); type: cell-based; settings: NHL4019, 28° C., 120 hours, glucose-peptone agar, read-out: Minimum inhibitory concentration MIC
# [21] = tested on: Streptococcus faecalis IFO 12964; assay: MIC, antibacterial activity (agar culture); type: cell-based; settings: Enterococcus faecalis, IFO12964, 37° C., 18-20 hours, Mueller-Hinton agar, read-out: Minimum inhibitory concentration MIC
# physchem = type: physicochemical; settings: 10 μg/ml in dimethylsulfoxide/physiological saline; for Percentage remainder: 0 hr.; for remaining at 3 h / remaining at 6 h / remaining at 24 h / remaining at 48 h / remaining at 72 h: read-out: Percentage remainder
# Description: The stability of some Fredericamycin A derivatives and Fredericamycin A in their aqueous solutions were tested in accordance with the following procedures.
# The test compounds were individually dissolved in dimethylsulfoxide, followed by dilution of the resulting solutions with physiological saline to adjust the final concentrations of the test compounds and Fredericamycin to 10 μg/ml respectively. The thus-prepared test solutions were then subjected to high performance liquid chromatography after predetermined time intervals to measure the percentage remainders of the test compounds.
# mouse leukemia P-388 = assay: Antitumor effect, survival of tumor-inoculated mice; type: in vivo, CDF1 mice; settings: intraperitoneally, once a day for 10 days
# Description: as §1, §2, §3
# [22] = prior art statement; cited from earlier work
# various microorganisms [23] = assay: Antibacterial activities against the tested microorganisms (general statement); type: cell-based; settings: for each of the tested microorganism (Table 1)
# Description: It should be noted that the MIC of Fredericamycin A was 100 μg/ml or more for each of the tested microorganism.
# Culture conditions for the test microorganisms:
# Inoculum size: 1×10^6 cells/ml. In the case of bacteria, each bacterium was cultured at 37° C. for 18-20 hours on a Mueller-Hinton agar (product of Difco Corp.). In the case of yeasts and molds, each microorganism was cultured at 28° C. for 120 hours on a glucose-peptone agar.
# various microorganisms [24] = settings: prior art statement; cited from earlier work
# [25] = 120 h; read-out: Minimum inhibitory concentration MIC
# [26] = Mus musculus, ip, 240 h, 0.5 mg/kg/day, read-out: percentage of mean survival time of test and control animals
# [27] = Mus musculus, ip, 240 h, 2.0 mg/kg/day, read-out: percentage of mean survival time of test and control animals
SMILES,MIC (Escherichia coli 0-1) [µg/mL],MIC (Saccharomyces ruxii 6507) [µg/mL],MIC [1] [µg/mL],MIC [2] [µg/mL],"MIC [3, 25] [µg/mL]",MIC (Sarcina lutea ATCC 9341) [µg/mL],MIC [7] [µg/mL],MIC [9] [µg/mL],MIC [10] [µg/mL],MIC [12] [µg/mL],MIC [13] [µg/mL],MIC [14] [µg/mL],response vs control in vivo at 0.5 mg/kg/day (Ehrlich carcinoma; [26]) [%],MIC [17] [µg/mL],MIC [20] [µg/mL],MIC [21] [µg/mL],Percentage remainder (physchem) [%],remaining at 3 h (physchem) [%],remaining at 6 h (physchem) [%],remaining at 24 h (physchem) [%],other results
"C/C=C/C=C/c1cc2cc3c(c(O)c2c(=O)[nH]1)C1(CC3)C(=O)c2c(OC(C)=O)c3c(c(OC(C)=O)c2C1=O)C(=O)C(OC)=CC3=O (centres unmarked) [Compound 1, Fredericamycin A diacetate]",> 100,0.39,100,0.1,0.05,0.39,0.78,0.78,3.12,0.39,6.25,0.39,295,> 100,> 100,1.56,–,–,–,–,"MIC (Seratia marcescens NHL): > 100 µg/mL; MIC [4]: 1.56 µg/mL; MIC (Salmonella typhi TD): > 100 µg/mL; MIC [5]: 1.56 µg/mL; MIC [6]: > 100 µg/mL; MIC [8]: 12.5 µg/mL; MIC [11]: 0.78 µg/mL; MIC (Shigella flexneri 2b): > 100 µg/mL; percentage of mean survival time of test and control animals (Meth-A fibrosarcoma; 0.25 mg/kg/day): 127%; percentage of mean survival time of test and control animals (Meth-A fibrosarcoma; 0.5 mg/kg/day): 191%; percentage of mean survival time of test and control animals (Meth-A fibrosarcoma; 1.0 mg/kg/day): 242%; response vs control in vivo at 0.125 mg/kg/day (Ehrlich carcinoma; Mus musculus, ip, 240 h, 0.125 mg/kg/day, read-out: percentage of mean survival time of test and control animals): 147%; response vs control in vivo at 0.25 mg/kg/day (Ehrlich carcinoma; Mus musculus, ip, 240 h, 0.25 mg/kg/day, read-out: percentage of mean survival time of test and control animals): 267%; MIC [15]: 50 µg/mL; MIC (Proteus vulgaris OXK): > 100 µg/mL; MIC [16]: 50 µg/mL; MIC [18]: > 100 µg/mL; MIC [19]: 0.39 µg/mL"
C/C=C/C=C/c1cc2cc3c(c(O)c2c(=O)[nH]1)C1(CC3)C(=O)c2c(OC(=O)CCCCC)c3c(c(OC(=O)CCCCC)c2C1=O)C(=O)C(OC)=CC3=O (centres unmarked) [Compound 5],–,–,–,25,0.39,–,–,–,–,–,–,–,–,–,–,–,100,93.2,88,67.6,percentage of mean survival time of test and control animals (Ehrlich carcinoma; 0.5 mg/kg/day): over 247%; percentage of mean survival time of test and control animals (Ehrlich carcinoma; 1.0 mg/kg/day): over 229%; percentage of mean survival time of test and control animals (Ehrlich carcinoma; 2.0 mg/kg/day): over 256%; remaining at 48 h (physchem): 57.8%; remaining at 72 h (physchem): 47.9%
C/C=C/C=C/c1cc2cc3c(c(O)c2c(=O)[nH]1)C1(CC3)C(=O)c2c(OC(=O)c3ccc(OC)cc3)c3c(c(OC(=O)c4ccc(OC)cc4)c2C1=O)C(=O)C(OC)=CC3=O (centres unmarked) [Compound 10],–,–,–,12.5,1.56,–,–,–,–,–,–,–,105,–,–,–,–,–,–,–,"response vs control in vivo at 1 mg/kg/day (Ehrlich carcinoma; Mus musculus, ip, 240 h, 1.0 mg/kg/day, read-out: percentage of mean survival time of test and control animals): 171%; response vs control in vivo at 2 mg/kg/day (Ehrlich carcinoma; [27]): > 202%"
"CCCCCc1cc2cc3c(c(O)c2c(=O)[nH]1)C1(CC3)C(=O)c2c(OC(C)=O)c3c(c(OC(C)=O)c2C1=O)C(=O)C(OC)=CC3=O (centres unmarked) [Compound 18, diacetyltetrahydrofredericamycin A]",> 100,> 100,> 100,0.78,–,25,25,> 100,> 100,> 100,25,50,–,> 100,> 100,25,–,–,–,–,"MIC ([3]; 120 h, read-out: Minimum inhibitory concentration MIC): 0.78 µg/mL; percentage of median survival time of test and control animals (mouse leukemia P-388; 2.0 mg/kg/day): 138%; percentage of median survival time of test and control animals (mouse leukemia P-388; 4.0 mg/kg/day): 142%; percentage of median survival time of test and control animals (mouse leukemia P-388; 8.0 mg/kg/day): 147%; response vs control in vivo at 2 mg/kg/day (Ehrlich carcinoma; [27]): 125%; response vs control in vivo at 4 mg/kg/day (Ehrlich carcinoma; Mus musculus, ip, 240 h, 4.0 mg/kg/day, read-out: percentage of mean survival time of test and control animals): > 188%; response vs control in vivo at 8 mg/kg/day (Ehrlich carcinoma; Mus musculus, ip, 240 h, 8.0 mg/kg/day, read-out: percentage of mean survival time of test and control animals): > 212%"
C/C=C/C=C/c1cc2cc3c(c(O)c2c(=O)[nH]1)C1(CC3)C(=O)c2c(O)c3c(c(O)c2C1=O)C(=O)C(OC)=CC3=O (centres unmarked) [Fredericamycin A],–,–,–,–,–,–,–,–,–,–,–,–,–,–,–,–,100,78.9,64,38.1,stability [22]: low; MIC (various microorganisms [23]): ≥ 100 µg/mL; remaining at 48 h (physchem): 27.3%; remaining at 72 h (physchem): 18.4%; antibacterial activities (various microorganisms [24]): weak
